Values quoted from earlier work as cited in US20160243040A1, “Pharmaceutical Composition with Antiinflammatory Agents and Production Process” (LABORATORIO RAAM DE SAHUAYO, S.A. DE C.V., priority 2013, published 2016).

Tests used:
[1] = relative potency, cortisol = 1
[2] = applies only to oral or intravenous use
[3] = relative potency, cortisol = 1; remark: listed apart in the source
[4] = class by biological half-life

| SMILES | Potency to retain Na+ [1] | Dose equivalents [2] | Anti-inflammatory potency [3] | Duration of action [4] | dose excreted in urine (mainly as aceclofenac glucuronide and diclofenac, and its hydroxy metabolites) | tmax in presence of food (oral, presence of food) | tmax without food (oral, without food) | elimination half-life (single dose of 100 mg) |
| --- | --- | --- | --- | --- | --- | --- | --- | --- |
| C[C@H]1C[C@@H]2[C@H]([C@@H](O)C[C@@]3(C)[C@H]2CC[C@]3(O)C(=O)CO)[C@@]2(C)C=CC(=O)C=C12 [6α-methyl prednisolone] | 0.5 | 4 mg | 5 | I (I, intermediate (Biological half-life of 12-36 h)) | – | – | – | – |
| C[C@H]1C[C@H]2[C@@H]3CCC4=CC(=O)C=C[C@]4(C)[C@@]3(F)[C@@H](O)C[C@]2(C)[C@@]1(O)C(=O)CO [Betamethasone] | – | – | – | P (P, prolonged (Biological half-life of 36 to 72 h)) | – | – | – | – |
| C[C@]12CCC(=O)C=C1CC[C@@H]1[C@@H]2[C@@H](O)C[C@@]2(C)[C@H]1CC[C@]2(O)C(=O)CO [Cortisol] | 1 | 20 mg | 1 | B (B, short (Biological half-life of 8-12 h)) | – | – | – | – |
| C[C@]12CCC(=O)C=C1CC[C@@H]1[C@@H]2C(=O)C[C@@]2(C)[C@H]1CC[C@]2(O)C(=O)CO [Cortisone] | 0.8 | 25 mg | 0.8 | B (B, short (Biological half-life of 8-12 h)) | – | – | – | – |
| C[C@@H]1C[C@H]2[C@@H]3CCC4=CC(=O)C=C[C@]4(C)[C@@]3(F)[C@@H](O)C[C@]2(C)[C@@]1(O)C(=O)CO [Dexamethasone] | – | – | – | P (P, prolonged (Biological half-life of 36 to 72 h)) | – | – | – | – |
| C[C@]12CCC(=O)C=C1CC[C@H]1[C@@H]3CC[C@](O)(C(=O)CO)[C@@]3(C)C[C@H](O)[C@@]12F [Fludrocortisone] | – | – | – | I (I, intermediate (Biological half-life of 12-36 h)) | – | – | – | – |
| C[C@]12C=CC(=O)C=C1CC[C@@H]1[C@@H]2[C@@H](O)C[C@@]2(C)[C@H]1CC[C@]2(O)C(=O)CO [Prednisolone] | 0.8 | 5 mg | 4 | I (I, intermediate (Biological half-life of 12-36 h)) | – | – | – | – |
| C[C@]12C=CC(=O)C=C1CC[C@H]1[C@@H]3C[C@@H](O)[C@](O)(C(=O)CO)[C@@]3(C)C[C@H](O)[C@@]12F [Tiamcinolone] | 0 | 4 mg | 5 | I (I, intermediate (Biological half-life of 12-36 h)) | – | – | – | – |
| O=C(O)COC(=O)Cc1ccccc1Nc1c(Cl)cccc1Cl [aceclofenac, Aceclofenac] | – | – | – | – | Approximately 70% | 3.5 h | 2.0 h | 6.2 h |
